In patent US20070111993A1, “Pharmaceutical composition comprising a salt of mirtazapine” (AKZO NOBEL N.V., priority 2004, published 2007):
Several values for one entry are separate records, joined by “and”; a condition that tells them apart may be missing. Equal values may be shown once.

What was measured:
Assay type in all cases: physicochemical
[1] = Sublimation test (cold finger, HPLC quantification of sublimate); settings: for Sublimation (result in words): conditions of the sublimation test, non-sublimating = less than 1% in 72 hours at 150 mBar, 60° C.; for Sublimate: drug substance, Pressure: 150 mbar, Test period: 72 hrs
Text: The property of sublimation can be observed and quantified with known methods to measure sublimation. For example, sublimation can be measured in an apparatus with a chamber in which the test compound is placed in its solid state and maintained in that state by controlled temperature. The gas phase in the chamber, optionally under low pressure, can be analyzed for content of test compound. It is also possible to continuously clear the test compound in the gas phase from the chamber either by a continuous renewal stream of a gas or by creating a sink for the test compound out of the gas phase, for example by a cold surface. The amount of material collected from sublimation or escaped from the sample by sublimation can be analyzed. The degree of sublimation is expressed as the fraction (as percentage) of the initial sample size.
The term ‘non-sublimating’ salt is defined to be a salt of S- or R-mirtazapine, from which less than 1% of the mirtazapine is sublimating from the sample, calculated on the basis of the amount of the base, when a sample of approximately 10 mg (for example an amount between 8-12 mg) is placed for the duration of 72 hours under standard conditions of 150 mBar pressure and 60° C. temperature.
Figure: Schematic presentation of the sublimation test equipment. A sample is placed on the bottom of a vessel, which is closed at the top by a vessel-shaped stopper into which cooling liquid (CL) is circulating and which vessel has an outlet connected to a vacuum pump (Vac). The vessel is placed in a closed chamber under constant temperature control (TC). A sublimate (Subl) can accumulate against the surface of the stopper within the vessel.
A sample (approximately 10 mg) was placed in a sample chamber of sublimation test equipment as illustrated in FIG. 1. The temperature in the sample chamber is controllable. The sample holder has a reduced pressure, which was 150 mBar by default. The sample chamber also consists of a section with reduced temperature (the “cold finger”), where the temperature is approximately 5° C. The majority of material that sublimates in the test sample with high temperature will precipitate on the cold finger. The amount of material on the cold finger after a test period of 72 hrs has been quantified using HPLC analysis. The degree of sublimation is expressed as the fraction material on the cold finger (as percentage) of the initial sample size. Additionally, the sublimation of active compound from tablets “drug product” has been tested.

[2] = Hygroscopicity (dynamic vapor sorption / water uptake from air); settings: for Hygroscopicity: dynamic vapor sorption measurement; for Hygroscopicity / affinity for water: environmental air, ambient conditions, method not stated
Method: To a solution of 3.01 g of S-mirtazapine in 5 ml of methanol was added at room temperature a solution of 1290 μl of hydrobromic acid in 20 ml of ethyl acetate. […] The mixture was cooled to 0° C. whereupon crystallization started. The white crystals were collected by filtration and were dried in a vacuum oven at 40° C. […] A water free drug substance sample attracts water when it comes in contact with environmental air, while it may loose water upon drying.

[3] = Sublimation observations outside the standard test
[4] = Temperature: 60° C., DL = level of detection

CN1CCN2c3ncccc3Cc3ccccc3[C@H]2C1.O=C(O)/C=C\C(=O)O [S-mirtazapine•maleic acid, S-mirtazapine maleic acid salt]
Sublimation (result in words) [1]: do not sublimate | Hygroscopicity [2]: not hygroscopic | Hygroscopicity / affinity for water [2]: not hygroscopic

Br.CN1CCN2c3ncccc3Cc3ccccc3[C@H]2C1 [S-mirtazapine•HBr, S-mirtazapine hydrobromic acid salt]
Sublimation (result in words) [1]: do not sublimate | Hygroscopicity / affinity for water [2]: forms a monohydrate under ambient conditions

CN1CCN2c3ncccc3Cc3ccccc3[C@H]2C1.O=C(O)/C=C/C(=O)O [S-mirtazapine•fumaric acid, S-mirtazapine fumaric acid salt]
Sublimation (result in words) [1]: do not sublimate | Hygroscopicity / affinity for water [2]: attracts water from environmental air to form a hydrate

CN1CCN2c3ncccc3Cc3ccccc3[C@H]2C1 [S-mirtazapine, 1,2,3,4,10,14b-hexahydro-2-methyl-pyrazino[2,1-a]pyrido[2,3-c][2]benzazepine, reference compound]
Sublimation (result in words) [1]: sublimates at the conditions used | Sublimate ([1]; Temperature: 40° C., fraction of initial sample on cold finger, listed as S-mirtazapine Batch E): 0.75% | Sublimate ([1]; Temperature: 40° C., fraction of initial sample on cold finger, listed as S-mirtazapine Batch J): 0.88% | Sublimate ([1]; Temperature: 60° C., DL = level of detection, listed as S-mirtazapine Batch E): 5.32% and 2.22% | Sublimate ([1]; Temperature: 60° C., DL = level of detection, listed as S-mirtazapine Batch J): 4.29% | Sublimation at ambient temperature ([3]; ambient temperature): slowly sublimating

CN1CCN2c3ncccc3Cc3ccccc3C2C1.CS(=O)(=O)O (stereo not drawn) [S-mirtazapine•methanesulfonic acid, S-mirtazapine methanesulfonic acid salt]
Sublimation (result in words) [1]: non-sublimation | Sublimate [1, 4]: 0.1% and 0.0% | Hygroscopicity / affinity for water [2]: non-hygroscopicity

CN1CCN2c3ncccc3Cc3ccccc3[C@H]2C1.Cl [S-mirtazapine•HCl, S-mirtazapine hydrochloric acid salt]
Sublimate [1, 4]: 0.2% | Hygroscopicity [2]: very hygroscopic | Temperature above which the compound starts to sublime [3]: above 170 °C

CN1CCN2c3ncccc3Cc3ccccc3C2C1.O=C(O)C(F)(F)F (stereo not drawn) [S-mirtazapine trifluoroacetic acid salt]
Sublimation (result in words) ([1]; listed as trifluoroacetic acid salt of S- or R-mirtazapine, trifluoroacetic acid salt): showed sublimation | Sublimation (result in words) ([1]; trifluoroacetic acid salt): not a non-sublimating salt
